Target: GLP-1R (Homo sapiens, UniProt P43220)
Experiment: GLP-1R agonist cAMP stimulation assay (HTRF cAMP)
Assay type: cell-based
Conditions: HEK293 cell line expressing GLP-1 target; HTRF cAMP agonist mode, 30 min at RT
Experimental: cAMP Detection Kit, Cisbio (Cat #62AM4PEJ)
The cell line was constructed by WuXi.
2. Methods • a) The compound source plate preparation: • The reference 7-37 was diluted from 500 nM, 4-fold, 10 points in DMSO using Bravo. The compounds were diluted from […], 3-fold, 10 points in DMSO using Bravo. • b) Transfer of compounds: • 1) Use Echo transfer 100 nL cpd to the OptiPlate-384 plate. • 2) Spin the plates at 1000 rpm for 5 sec. • c) Cell suspension preparation: • 1) Thaw 1 vial of GLP-1 cells rapidly in 37° C. water bath. • 2) Transfer cell suspension into 10 ml of HBSS in a 15 ml conical tube. • 3) Centrifuge cells at 1000 rpm for 5 min at room temperature to pellet cells • 4) Gently aspirate supernatant being careful not to aspirate cells. • 5) Flick pellet to loose cells and re-suspend the cell pellet in 10 ml HBSS. Use a sterile pipette to pipette up and down to dislodge clumps. • 6) Count cells for concentration and to determine cell viability on Vi-cell. • 7) Re-suspend the GLP-1 cells in assay buffer at a concentration of 1.0×E5/mL cells. • 8) Transfer 10 μL GLP-1 cells to OptiPlate-384 plate. • d) HTRF cAMP Assay for agonist: • 1) Incubate the plate at RT for 30 min before adding the detection reagent. • 2) Add 10 μL each of detection reagent using Electric Multiple Channel Pipette. • 3) Cover the 384 plate with TopSeal-A film and incubate for 60 minutes at room temperature. • Remove the TopSeal-A, read on EnVision.
Create a new log (Inhibitor) vs response—Variable slope mode in Prism5.0 software, substitute the standard curve concentration (x) and its corresponding 665/615 data (y) into the model, convert the standard curve concentration (abscissa) by x=log(x), and make the standard curve through the converted xy.
Transform the data of 665/615 in the whole plate into a column of data, substitute it into y in the table of standard curve concentration (x) and 665/615 data (y), copy the x (interpolatedx) corresponding to automatic conversion by the software into a table, convert it into cAMP level by the formula x=10^(x), and reset the data into 384 distribution.
% Activity=(cAMP level−LC)/(HC−LC)*100% • Z factor: 1-3*(STD_HC+[…])/(HC-LC) • Assay Window: HC/LC • LC: The average cAMP level of adding DMSO wells • HC: The average cAMP level of adding the top concentration of reference compounds wells.
Create a new […] in Prism5.0 software, substitute the sample concentration (x) and its corresponding % Activity data (y) into the model, convert the standard curve concentration (abscissa) to x=log(x), and make the sample curve through the converted xy.

Sequence of GLP-1R (P43220 24-463): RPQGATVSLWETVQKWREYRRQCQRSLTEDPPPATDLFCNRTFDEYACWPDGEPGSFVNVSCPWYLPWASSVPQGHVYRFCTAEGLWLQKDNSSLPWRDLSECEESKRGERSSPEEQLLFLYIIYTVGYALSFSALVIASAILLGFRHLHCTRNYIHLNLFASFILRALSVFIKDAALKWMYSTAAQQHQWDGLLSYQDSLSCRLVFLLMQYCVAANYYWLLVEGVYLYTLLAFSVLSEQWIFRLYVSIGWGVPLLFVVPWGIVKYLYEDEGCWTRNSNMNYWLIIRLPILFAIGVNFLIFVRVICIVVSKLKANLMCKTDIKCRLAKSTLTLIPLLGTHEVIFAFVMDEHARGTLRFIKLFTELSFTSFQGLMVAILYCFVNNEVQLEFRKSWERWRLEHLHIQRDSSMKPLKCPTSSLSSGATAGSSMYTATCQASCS

| Structure (SMILES) | EC50 |
| --- | --- |
| O=C(Nc1cc(C(F)(F)F)c2[nH]ncc2c1)c1ccc2c(c1)nc(CN1CC=C(c3cccc(OCc4ccc(Cl)cc4F)n3)CC1)n2C[C@@H]1CCO1 [Compound 158] | 1.03 nM |
| Cc1n[nH]c2c(Cl)cc(C(=O)Nc3ccc4c(c3)nc(CN3CCC(c5cccc6c5OC(C)(c5ccc(Cl)cc5F)O6)CC3)n4CC3CCO3)cc12 (centres unmarked) [Compound 344] | 1.02 nM |
| COCCn1c(Cc2ccc(-c3cccc(OCc4ccc(C#N)cc4F)n3)cc2)nc2cc(C(=O)NCCc3ccc(C(=O)NCCc4ccc(C(=O)O)cc4)cc3)ccc21 [Compound 10] | 993 nM |
| Cc1cc(NC(=O)c2ccc3nc(CN4CC=C(c5cccc(OCc6ccc(Cl)cc6F)n5)CC4)n(CC4CCO4)c3c2)cc2c(F)n[nH]c12 (centres unmarked) [Compound 265] | 45.9 nM |
| N#Cc1ccc(COc2cccc(C3CCN(Cc4nc5cc(C(=O)NCC(=O)N6C[C@@H](O)C[C@H]6C(=O)O)ccc5n4C[C@@H]4CCO4)CC3)n2)c(F)c1 [Compound 56] | 0.97 nM |
| Cc1cc(C(=O)Nc2ccc3c(c2)nc(CN2CC=C(c4cccc(OCc5ccc(Cl)cc5F)n4)CC2)n3C[C@@H]2CCO2)cc2c(C3CC3)n[nH]c12 [Compound 218] | 1.63 nM |
| C=C(C)c1n[nH]c2ccc(C(=O)Nc3ccc4c(c3)nc(C3CC35CCN(c3cccc(OCc6ccc(Cl)cc6F)n3)CC5)n4CC3CCO3)cc12 (centres unmarked) [Compound 243] | 0.48 nM |
| Cc1n[nH]c2c(F)cc(C(=O)Nc3ccc4nc(CN5CC=C(c6cccc(OCc7ccc(C#N)cc7F)n6)CC5)n(CC5CCO5)c4c3)cc12 (centres unmarked) [Compound 289] | 0.99 nM |
| Cn1cc2cc(NC(=O)c3ccc4c(c3)nc(CN3CCC(c5cccc(OCc6ccc(Cl)cc6F)n5)CC3)n4C[C@@H]3CCO3)ccc2n1 [Compound 99] | 42.4 nM |
| Cc1n[nH]c2cnc(C(=O)Nc3ccc4c(c3)nc(CN3CC=C(c5cccc(OCc6ccc(Cl)cc6F)n5)CC3)n4C[C@@H]3CCO3)cc12 [Compound 237] | 8.71 nM |
| Cc1n[nH]c2c(Cl)cc(C(=O)Nc3ccc4c(c3)nc(CN3CC=C(c5cccc(OCc6ccc(Cl)cc6F)n5)CC3)n4C[C@@H]3CCO3)cc12 [Compound 214] | 1.21 nM |
| Cc1n[nH]c2ccc(C(=O)Nc3ccc4c(c3)nc(CN3CC=C(c5cccc(OCc6ccc(Cl)cn6)n5)CC3)n4C[C@@H]3CCO3)cc12 [Compound 198] | 0.35 nM |
| Cc1n[nH]c2ccc(C(=O)Nc3ccc4c(c3)nc(CN3CC=C(c5cccc(OCc6ccc(C#N)cc6F)n5)CC3)n4C[C@@H]3CCO3)cc12 [Compound 235] | 0.42 nM |
| Cc1n[nH]c2c(C(F)(F)F)cc(NC(=O)c3ccc4nc(CN5CC=C(c6cccc(OCc7ccc(Cl)cc7F)n6)CC5)n(CC5CCO5)c4c3)cc12 (centres unmarked) [Compound 272] | 3.21 nM |
| COCCn1c(CN2CCC(c3cccc(OCc4ccc(Cl)cc4F)n3)CC2)nc2cc(C(=O)NCCCc3ccc(OC)cc3)ccc21 [Compound 20] | 3240 nM |
| O=C(Nc1ccc2[nH]c(=O)[nH]c2c1)c1ccc2nc(CN3CC=C(c4cccc(OCc5ccc(Cl)cc5F)n4)CC3)n(C[C@@H]3CCO3)c2c1 [Compound 270] | 1.02 nM |
| Cc1cc(C(=O)Nc2ccc3c(c2)nc(CN2CC=C(c4cccc(OCc5ccc(Cl)cc5F)n4)CC2)n3C[C@@H]2CCO2)cc2cn[nH]c12 [Compound 199] | 0.47 nM |
| Cc1n[nH]c2c(F)cc(C(=O)Nc3ccc4c(c3)nc(CN3CCC(c5cccc(OCc6cc(F)c(C#N)s6)n5)CC3)n4C[C@@H]3CCO3)cc12 [Compound 374] | 0.55 nM |
| Cc1cc2c(C#N)ccc(COc3cccc(C4CCN(Cc5nc6cc(NC(=O)c7ccc8[nH]nc(C(F)(F)F)c8c7)ccc6n5C[C@@H]5CCO5)CC4)n3)c2o1 [Compound 371] | 3.19 nM |
| O=C(Nc1ccc2nc(CN3CC=C(c4cccc(OCc5ccc(Cl)cc5F)n4)CC3)n(CC3CCO3)c2c1)c1ccc2[nH]nc(Cl)c2c1 (centres unmarked) [Compound 284] | 9.85 nM |
| Cc1n[nH]c2c(F)cc(NC(=O)c3ccc4c(c3)nc(CN3CC=C(c5cccc(OCc6cc(F)c(C#N)s6)n5)CC3)n4C[C@@H]3CCO3)cc12 [Compound 363] | 0.41 nM |
| Cc1nc2cccc(COc3cccc(C4CCN(Cc5nc6cc(C(=O)Nc7ccc8[nH]nc(C)c8c7)ccc6n5C[C@@H]5CCO5)CC4)n3)c2s1 [Compound 381] | 1.99 nM |

| Structure (SMILES) | EC50 |
| --- | --- |
| COC(=O)[C@@H]1CC(F)(F)CN1C(=O)CNC(=O)c1ccc2c(c1)nc(CN1CCC(c3cccc(OCc4ccc(Cl)cc4F)n3)CC1)n2C[C@@H]1CCO1 [Compound 64] | 151 nM |
| Cc1cc(C(=O)Nc2ccc3c(c2)nc(CN2CC=C(c4cccc(OCc5ccc(Cl)cc5F)n4)CC2)n3C[C@@H]2CCO2)cc2c(C(F)F)n[nH]c12 [Compound 217] | 0.79 nM |
| CC1(c2ccc(Cl)cc2F)Oc2cccc(C3=CCN(Cc4nc5cc(NC(=O)c6cc(F)c7c(c6)C6(CC6)C(=O)N7)ccc5n4C[C@@H]4CCO4)CC3)c2O1 (some centres unmarked) [Compound 314] | 0.63 nM |
| O=C(NCC(=O)N1CCC[C@H]1C(=O)O)c1ccc2c(c1)nc(CN1CCC(c3cccc(OCc4ccc(Cl)cc4F)n3)CC1)n2C[C@@H]1CCO1 [Compound 60] | 22.3 nM |
| Cc1n[nH]c2cc(F)c(NC(=O)c3ccc4c(c3)nc(CN3CCC(c5cccc(OCc6ccc(Cl)cc6F)n5)CC3)n4C[C@@H]3CCO3)cc12 [Compound 123] | 5.49 nM |
| COCCn1c(CN2CCC(c3cccc(OCc4ccc(Cl)cc4F)n3)CC2)nc2cc(C(=O)NCc3ccc(O)nc3)ccc21 [Compound 34] | 90.1 nM |
| COCCn1c(C2CC23CCN(c2cccc(OCc4ccc(C#N)cc4F)n2)CC3)nc2ccc(C(=O)Nc3ccc4[nH]nc(C)c4c3)cc21 (centres unmarked) [Compound 8] | 1.33 nM |
| Cc1n[nH]c2ccc(C(=O)Nc3ccc4c(c3)nc(CN3CCC(c5cccc(OCc6ccc(Cl)cc6F)n5)CC3)n4CCOC(F)(F)F)cc12 [Compound 261] | 0.81 nM |
| Cc1n[nH]c2c(F)cc(NC(=O)c3ccc4c(c3)nc(CN3CC=C(c5cccc6c5O[C@](C)(c5ccc(C#N)cc5F)O6)CC3)n4CC3CCO3)cc12 (some centres unmarked) [Compound 300] | 0.19 nM |
| COCCn1c(CN2CCC(c3cccc(OCc4ccc(Cl)cc4F)n3)CC2)nc2cc(C(=O)NCc3ccccc3O)ccc21 [Compound 35] | > 10000 nM |
| Cc1nc2ccc(NC(=O)c3ccc4c(c3)nc(CN3CCC(c5cccc(OCc6ccc(Cl)cc6F)n5)CC3)n4C[C@@H]3CCO3)cc2s1 [Compound 95] | 62 nM |
| Cc1n[nH]c2ccc(C(=O)Nc3ccc4c(c3)nc(CN3CC=C(c5cccc(OCc6ccc(Cl)cc6F)n5)CC3)n4C[C@@H]3CCO3)c(F)c12 [Compound 224] | 3.29 nM |
| COCCn1c(CN2CCC(c3cccc(OCc4ccc(Cl)cc4F)n3)CC2)nc2cc(C(=O)NCCCn3ccnc3)ccc21 [Compound 16] | 146 nM |
| CCc1cc(NC(=O)c2ccc3c(c2)nc(CN2CC=C(c4cccc(OCc5ccc(Cl)cc5F)n4)CC2)n3C[C@@H]2CCO2)cc2c(C)n[nH]c12 [Compound 170] | 3.55 nM |
| COCCn1c(CN2CCC(c3cccc(OCc4ccc(Cl)cc4F)n3)CC2)nc2cc(C(=O)NCCc3nc4ccccc4[nH]3)ccc21 [Compound 22] | 1370 nM |
| N#Cc1ccc(COc2cccc(C3=CCN(Cc4nc5cc(NC(=O)c6ccc7c(c6)C6(CC6)C(=O)N7)ccc5n4C[C@@H]4CCO4)CC3)n2)c(F)c1 [Compound 230] | 0.09 nM |
| Cc1n[nH]c2c(C)cc(C(=O)Nc3ccc4c(c3)nc(C(F)(F)N3CC=C(c5cccc(OCc6ccc(Cl)cc6F)n5)CC3)n4C[C@@H]3CCO3)cc12 [Compound 256] | 12.5 nM |
| Cc1n[nH]c2c(F)cc(C(=O)Nc3ccc4c(c3)nc(C(F)(F)N3CC=C(c5cccc(OCc6ccc(Cl)cc6F)n5)CC3)n4C[C@@H]3CCO3)cc12 [Compound 255] | 0.32 nM |
| COC(=O)[C@@H]1C[C@H](O)CN1C(=O)CNC(=O)c1ccc2c(c1)nc(CN1CCC(c3cccc(OCc4ccc(C#N)cc4F)n3)CC1)n2C[C@@H]1CCO1 [Compound 47] | 9.6 nM |
| Cc1n[nH]c2ccc(NC(=O)c3ccc4c(c3)nc(CN3CCC(c5cccc(OCc6ccc(Cl)cc6F)n5)CC3)n4C[C@@H]3CCO3)c(F)c12 [Compound 122] | 3.21 nM |
| Cc1cc(-c2cccc3c2OC(C)(c2ccc(Cl)cc2F)O3)cc(F)c1Cc1nc2cc(NC(=O)c3ccc4[nH]nc(C5CC5)c4c3)ccc2n1CC1CCO1 (centres unmarked) [Compound 324] | 2.95 nM |
| O=C(Nc1ncc2[nH]cnc2n1)c1ccc2c(c1)nc(CN1CC=C(c3cccc(OCc4ccc(Cl)cc4F)n3)CC1)n2C[C@@H]1CCO1 [Compound 144] | 23.4 nM |

Source: patent US20230271949A1, “GLP-1R MODULATING COMPOUNDS” (ASCLETIS BIOSCIENCE CO., LTD., priority 2022, published 2023)
